# Reference: paper PMC4061029, “A Stable and Reproducible Human Blood-Brain Barrier Model Derived from Hematopoietic Stem Cells” (PLoS ONE, 2014)
# B1: Wnt7a: human recombinant protein Wnt7a, Wnt ligand (protein, UniProt O00755 32-349, looked up)
# Protein Wnt-7a: LGASIICNKIPGLAPRQRAICQSRPDAIIVIGEGSQMGLDECQFQFRNGRWNCSALGERTVFGKELKVGSREAAFTYAIIAAGVAHAITAACTQGNLSDCGCDKEKQGQYHRDEGWKWGGCSADIRYGIGFAKVFVDAREIKQNARTLMNLHNNEAGRKILEENMKLECKCHGVSGSCTTKTCWTTLPQFRELGYVLKDKYNEAVHVEPVRASRNKRPTFLKIKKPLSYRKPMDTDLVYIEKSPNYCEEDPVTGSVGTQGRACNKTAPQASGCDLMCCGRGYNTHQYARVWQCNCKFHWCCYVKCNTCSERTEMYTCK
# B2: Wnt3a: human recombinant protein Wnt3a, Wnt ligand (protein, UniProt P56704 19-352, looked up)
# Protein Wnt-3a: SYPIWWSLAVGPQYSSLGSQPILCASIPGLVPKQLRFCRNYVEIMPSVAEGIKIGIQECQHQFRGRRWNCTTVHDSLAIFGPVLDKATRESAFVHAIASAGVAFAVTRSCAEGTAAICGCSSRHQGSPGKGWKWGGCSEDIEFGGMVSREFADARENRPDARSAMNRHNNEAGRQAIASHMHLKCKCHGLSGSCEVKTCWWSQPDFRAIGDFLKDKYDSASEMVVEKHRESRGWVETLRPRYTYFKVPTERDLVYYEASPNFCEPNPETGSFGTRDRTCNVSSHGIDGCDLLCCGRGHNARAERRREKCRCVFHWCCYVSCQECTRVYDVHTCK
# Assays:
# [1] = tested on: monocultures of CD34+-derived ECs; test: Wnt signaling experiments: paracellular permeability of treated EC monocultures; assay type: cell-based, human; details: Wnt3a 6.25 ng/mL
# Experimental: (§1) Prior to the experiments, HEPES-buffered Ringer’s solution (in some cases EBM-2 medium) was added to empty wells of a 12-well plate (Costar). Filter inserts, containing confluent monolayers of CD34^+-ECs, were subsequently placed in the 12-well plate, filled with compound solution containing the fluorescent integrity marker Lucifer Yellow (20 µM; Life Technologies), and then placed on an orbital shaker. After 1 h, filter inserts were withdrawn from the receiver compartment. Aliquots from the donor solution were taken at the beginning and at the end of the experiments and the fluorescence was quantified. At least three inserts with cells and three without cells were tested in each permeability measurement. Fluorescence detection was carried out on a Synergy H1 multiplates reader (Biotek) using the following excitation/emission wavelength (nm) settings: 432/538; 490/516; 542/570 for Lucifer yellow, Fluorescein Na and Cy3-Human Serum Albumin and Human IgG respectively.
# To obtain a concentration-independent transport parameter, the clearance principle was used. The increment in cleared volume was calculated by dividing the amount of compound in the receiver compartment by the drug concentration in the donor compartment. The volume cleared was plotted versus time and the slope estimated by linear regression analysis. The slope of the clearance curve with inserts alone and inserts with cells is equal to PSf and PSt, respectively, where PS (microliters/minute) is the permeability surface area (square centimeter) product. The PS-value for endothelial monolayer (PSe) was calculated. To generate the endothelial permeability coefficient, Pe (cm/min), the PSe value was divided by the surface area of the filter (A in cm^2) insert using the following equation: Pe = [1/PSt−1/PSf]^−1/A. To assess possible adsorption to plastics and non-specific binding to cells, the mass balance (%) was calculated from the amount of compound recovered in both compartments at the end of the experiment divided by the total amount added in the donor compartment at time zero. For Pe determination, mass balance value should be between 80% and 120%.
# (§2) For Wnt signaling experiments, mono- and co-culture systems were used. In monoculture, 8×10^4 CD34^+-ECs were seeded on the Matrigel-coated transwell insert. The cells were then incubated with agonists/ligands (6.25 ng/mL–100 ng/mL Wnt3A (R&D Systems), 6.25 ng/mL–250 ng/mL Wnt7A (Peprotech) or 0.5–5 µM BIO (Sigma)) for 1 or 5 days. Co-cultures were prepared as described before. The CD34^+-derived ECs co-cultured with pericytes for 1 or 6 days were used in the signaling experiments. Agonist (0.5–5 µM BIO) was added into the basolateral compartment while antagonist (0.1–3 µM XAV939 (Selleckbio)) was added in the apical part of the transwell system.
# [2] = tested on: CD34+-derived ECs; test: Immunostaining of claudin-1 in treated EC monocultures; assay type: cell-based, human; details: EC monoculture, day 6; BIO 0.5 µM, Wnt3a 6.25 ng/mL
# Experimental: as §2
# Immunostaining. Cells were fixed in cold methanol/acetone (50%/50% v/v) for 1 min or 4% (v/v) paraformaldehyde (Electron Microscopy Sciences, EMS) for 10 min at room temperature (see Table S1). After permeabilizing the cells with 0.1% (v/v) Triton X-100 (Sigma-Aldrich) for 5-10 min, whenever required, and blocking for 30 min with 1% (w/v) bovine serum albumin (BSA) solution (Sigma-Aldrich) or normal goat serum (10% (v/v), Sigma-Aldrich), the cells were incubated for 1 h with the primary monoclonal antibodies listed in Table S1, at room temperature. […] Cells were examined with a Zeiss LSM 50 confocal microscope or with a Leica DMR fluorescence microscope (Leica Microsystems). […]
# [3] = tested on: β-catenin; test: Wnt signaling experiments: β-catenin expression in monocultures of ECs; assay type: cell-based, human; details: EC monoculture; for expression of active β-catenin: after 1 day; for expression and nuclear localization of total β-catenin: day 3, BIO 0.5 µM, Wnt3a 6.25 ng/mL
# Experimental: as §2, with “The cells were then incubated with agonists/ligands (6.25 ng/mL–100 ng/mL Wnt3A (R&D Systems), 6.25 ng/mL–250 ng/mL Wnt7A (Peprotech) or 0.5–5 µM BIO (Sigma)) for 1 or 5 days.” left out
# Immunostaining. Cells were fixed in cold methanol/acetone (50%/50% v/v) for 1 min or 4% (v/v) paraformaldehyde (Electron Microscopy Sciences, EMS) for 10 min at room temperature (see Table S1). After permeabilizing the cells with 0.1% (v/v) Triton X-100 (Sigma-Aldrich) for 5-10 min, whenever required, and blocking for 30 min with 1% (w/v) bovine serum albumin (BSA) solution (Sigma-Aldrich) or normal goat serum (10% (v/v), Sigma-Aldrich), the cells were incubated for 1 h with the primary monoclonal antibodies listed in Table S1, at room temperature. After washing, the cells were stained with a secondary antibody for 1 h in the dark at room temperature (Table S1). In each immunofluorescence experiment, an isotype-matched IgG control was used. The nuclei of cells was stained with 4',6-diamidino-2-phenylindole (DAPI; Sigma-Aldrich) or Hoescht reagent (ICN Pharmaceuticals). Cells were mounted using Mowiol (Sigma-Aldrich) containing an anti-fading agent (Dabco, Sigma-Aldrich) or cell-mounting medium from DAKO. Cells were examined with a Zeiss LSM 50 confocal microscope or with a Leica DMR fluorescence microscope (Leica Microsystems). In the last case, images were collected using a Cool SNAP RS Photometrics camera (Leica Microsystems) and were processed using Adobe Photoshop software 5.5 (Adobe systems).
# FACS analysis. Cells were dissociated from the culture plate by exposure to Cell Dissociation Buffer (Life Technologies) for 3-5 min and gentle pipetting, centrifuged and finally resuspended in PBS supplemented with 5% (v/v) FBS. The single cell suspensions were aliquoted (2.0×10^5 cells per condition), fixed with 4% (v/v) paraformaldehyde (PFA; EMS) or ice-cold absolute methanol and permeabilized with 0.1% (w/v) Triton X-100 (Fluka) when necessary. The cells were stained with antigen-specific primary antibodies (dilution ratios and list of antibodies are given on Table S1). After the incubation with primary antibodies, cells were incubated with phycoerytrin (PE)-conjugated anti-rabbit (R&D Systems), and PE-conjugated anti-mouse (Santa Cruz) secondary antibodies. FACS Calibur (BD Biosciences) and BD Cell Quest Software (BD Biosciences) were used for the acquisition and analysis of the data.
# [4] = tested on: CD34+-derived ECs; test: qRT-PCR of claudin-1 and LEF1 in ECs treated with Wnt ligands; assay type: cell-based, human; details: EC monoculture
# Experimental: as §2
# Reverse transcription and quantitative real time polymerase chain reaction (qRT-PCR) analysis. CD34^+-ECs cultured in different conditions were homogenized in Trizol reagent (Life Technologies) and total RNA was extracted using the RNeasy Mini Kit (Qiagen), according to manufacturer’s instructions. In all cases, cDNA was prepared from 1 μg total RNA using Taqman Reverse transcription reagents (Applied Biosystems). Non-quantitative RT-PCR was performed using the conditions described in [4] and DNA migrated on a agarose gel electrophoresis (1.5%) with a low range DNA molecular weight marker (Euromedex) to visualize the sizes. Gels were then stained with gel red nucleic acid gel stain (Interchim) and visualized on a UV light transilluminator (Bio-Rad). Quantitative real time PCR (qRT-PCR) was performed using Power SYBR Green PCR Master Mix (Applied Biosystems) and the detection was carried out in a 7500 Fast Real-Time PCR System (Applied Biosystems). Quantification of target genes was performed relatively to the reference GAPDH gene: relative expression = 2^[-(Ctsample^-CtGADPH^)]. Primer sequences are given as supporting information (Table S2).
# [5] = tested on: cord blood-derived ECs co-cultured with astrocytes; parameters: method as in PMID 24392113; details: BBB model of cord blood-derived ECs co-cultured with astrocytes; cited from earlier work
# [6] = tested on: brain-like endothelial cells (BLECs); test: Endothelial permeability (Pe) to Lucifer yellow, ECs co-cultured with pericytes (BLECs); assay type: in vitro ADME, human; details: day 6, n = 60
# Experimental: For co-culture experiments, pericytes were initially seeded on 60-mm gelatin-coated petri dishes and cultured in Dulbecco’s Modified Eagle’s Medium (DMEM) (Life Technologies) supplemented with 20% (v/v) FBS (Life Technologies), 2 mM L-glutamine, 50 µg/mL gentamycin and 1 ng/mL bFGF. The cells reached confluency after 2 days. 45×10^3 cells were seeded into each well of 12-well plates (Costar). […]
# Prior to the experiments, HEPES-buffered Ringer’s solution (in some cases EBM-2 medium) was added to empty wells of a 12-well plate (Costar). […] Aliquots from the donor solution were taken at the beginning and at the end of the experiments and the fluorescence was quantified. […] Fluorescence detection was carried out on a Synergy H1 multiplates reader (Biotek) using the following excitation/emission wavelength (nm) settings: 432/538; 490/516; 542/570 for Lucifer yellow, Fluorescein Na and Cy3-Human Serum Albumin and Human IgG respectively.
# (§3) To obtain a concentration-independent transport parameter, the clearance principle was used. The increment in cleared volume was calculated by dividing the amount of compound in the receiver compartment by the drug concentration in the donor compartment. […] The PS-value for endothelial monolayer (PSe) was calculated. […]
# [7] = tested on: monolayers of CD34+-derived ECs (monoculture); test: Endothelial permeability (Pe) to Lucifer yellow, ECs in monoculture; assay type: in vitro ADME, human; details: CD34+-derived ECs grown to confluence on filters for 6 days
# Experimental: as §1
# as §3, with “compartment. The volume cleared was plotted versus time and the slope estimated by linear regression analysis.” for “compartment.”
# [8] = tested on: BLECs; test: Expression of adhesion molecules by BLECs (FACS); assay type: cell-based, human; details: 10 ng/mL for 24 h
# Experimental: Adhesion molecule expression by BLECs was determined by FACS. For these experiments, CD34^+-ECs were cultured with pericytes for 6 days. After co-culture, transwells with BLEC monolayers were transferred to a new 12-well plate. BLECs were treated with 10 ng/mL TNF-α (Peprotech) for 24 h. Untreated BLECs were used as control. Cells were dissociated from the culture plate by exposure to Cell Dissociation Buffer (Life Technologies) for 3–5 min and gentle pipetting, centrifuged and finally resuspended in PBS supplemented with 5% (v/v) FBS. The single cell suspensions were aliquoted (2.0×10^5 cells per condition) and incubated with primary antibodies against human CD40, ICAM1, ICAM2, VCAM1, PECAM1 (Table S1). After the incubation with primary antibodies, cells were incubated with phycoerytrin (PE)-conjugated anti-rabbit (R&D Systems), and PE-conjugated anti-mouse (Santa Cruz) secondary antibodies. FACS Calibur (BD Biosciences) and BD Cell Quest Software (BD Biosciences) were used for the acquisition and analysis of the data.
# FACS analysis. Cells were dissociated from the culture plate by exposure to Cell Dissociation Buffer (Life Technologies) for 3-5 min and gentle pipetting, centrifuged and finally resuspended in PBS supplemented with 5% (v/v) FBS. […]
# [9] = biological target: P-gp (Homo sapiens, UniProt P08183); details: [3H]-vincristine sulphate 66.5 nM, 2 h; 25 μM verapamil or 0.5 μM elacridar
# [10] = long-term: 1 day of monoculture + 5 day of treatment, Wnt7a 6.25 ng/mL, BIO 0.5 µM
# Sequence of P-gp (P08183 whole entry): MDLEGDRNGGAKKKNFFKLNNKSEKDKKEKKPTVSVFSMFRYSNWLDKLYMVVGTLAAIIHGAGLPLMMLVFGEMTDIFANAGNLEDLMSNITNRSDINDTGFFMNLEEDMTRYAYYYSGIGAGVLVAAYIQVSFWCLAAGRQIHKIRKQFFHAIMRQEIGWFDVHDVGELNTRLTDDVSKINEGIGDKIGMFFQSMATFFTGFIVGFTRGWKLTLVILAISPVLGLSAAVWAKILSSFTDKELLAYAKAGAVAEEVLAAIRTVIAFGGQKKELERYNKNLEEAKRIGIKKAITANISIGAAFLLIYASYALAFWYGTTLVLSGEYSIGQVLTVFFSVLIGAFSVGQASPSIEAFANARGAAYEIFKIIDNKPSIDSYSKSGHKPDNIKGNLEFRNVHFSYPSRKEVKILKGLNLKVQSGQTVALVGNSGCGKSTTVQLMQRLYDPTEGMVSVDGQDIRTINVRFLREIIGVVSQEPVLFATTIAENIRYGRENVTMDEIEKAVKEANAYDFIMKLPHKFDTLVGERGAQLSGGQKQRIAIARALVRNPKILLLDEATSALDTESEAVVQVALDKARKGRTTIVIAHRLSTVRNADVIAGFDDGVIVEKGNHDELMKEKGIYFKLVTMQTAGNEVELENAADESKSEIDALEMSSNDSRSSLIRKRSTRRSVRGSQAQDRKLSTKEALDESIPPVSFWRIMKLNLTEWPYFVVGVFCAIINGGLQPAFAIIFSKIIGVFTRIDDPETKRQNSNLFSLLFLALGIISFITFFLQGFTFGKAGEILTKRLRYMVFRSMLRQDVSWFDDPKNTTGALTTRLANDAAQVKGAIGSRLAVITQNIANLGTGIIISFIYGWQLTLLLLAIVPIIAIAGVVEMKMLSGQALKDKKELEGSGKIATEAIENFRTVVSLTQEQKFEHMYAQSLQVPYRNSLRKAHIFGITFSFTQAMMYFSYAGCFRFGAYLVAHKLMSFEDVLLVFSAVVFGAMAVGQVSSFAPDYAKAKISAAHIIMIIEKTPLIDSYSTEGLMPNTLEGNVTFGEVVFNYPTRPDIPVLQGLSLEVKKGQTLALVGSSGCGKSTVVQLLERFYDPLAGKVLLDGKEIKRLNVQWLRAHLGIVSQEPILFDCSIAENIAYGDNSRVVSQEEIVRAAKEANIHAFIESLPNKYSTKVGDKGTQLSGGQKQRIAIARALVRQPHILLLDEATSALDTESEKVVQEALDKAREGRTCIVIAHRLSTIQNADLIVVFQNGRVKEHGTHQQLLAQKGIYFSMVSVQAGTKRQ
Molecule,"paracellular permeability to Lucifer Yellow versus untreated cells [1, 10]",localization of claudin-1 [2],expression of active β-catenin [3],expression and nuclear localization of total β-catenin [3],LEF1 gene expression [4],claudin-1 gene expression [4],also measured
O=C1Nc2cc(Br)ccc2/C1=C1/Nc2ccccc2/C1=N\O [BIO],only observed after 5-day treatment,localization of claudin-1 at the cell-cell contacts,increasing,increase,up-regulation,up-regulation,–
Lucifer yellow,–,–,–,–,–,–,Pe to Lucifer yellow [5]: 0.00123 cm/min; permeability to Lucifer yellow [6]: 0.61±0.15×10^−3 cm/min; permeability to Lucifer yellow [7]: 0.002 cm/min
TNF-α,–,–,–,–,–,–,"expression of ICAM-1, ICAM-2, CD40 and VCAM-1 [8]: up-regulation"
COc1cc2c(cc1OC)CN(CCc1ccc(NC(=O)c3cccc4c(=O)c5cccc(OC)c5[nH]c34)cc1)CC2 [elacridar],–,–,–,–,–,–,accumulation of vincristine in BLECs on inhibition of P-gp [9]: significant increase
B1,only observed after 5-day treatment,–,–,–,–,–,–
B2,statistical lower,localization of claudin-1 at the cell-cell contacts,increasing,increase,up-regulation,up-regulation,"paracellular permeability to Lucifer Yellow versus untreated cells ([1]; short-term: 5 days of monoculture + 1 day of treatment, P<0.01, n = 4): statistical lower"
